Source: paper PMC12603272 (2025)

Tested on: AT-rich palindromic dodecanucleotide dsDNA (DNA, duplex) CGCAAATTTGCG
Test: photoluminescence titration
Details: dsDNA stock 10 mM Tris, 0.1 mM EDTA pH 8.0, 25 °C

## Cn1ccc(=Nc2ccc(NC(=O)c3ccc(N=c4ccn(C)c5ccc([N+](=O)[O-])cc45)cc3)cc2)cc1
dsDNA (0-10 µM) into 10 µM compound in D2O
  binding: yes

## CN1CCN(c2ccc3nc(-c4ccc5nc(-c6ccc(O)cc6)[nH]c5c4)[nH]c3c2)CC1
dsDNA (0-8 µM) into 8 µM compound in D2O
  binding: yes
